Assay type in all cases: cell-based, human
One test relates to T47D cells. The test can be described thus: Cell survival assay, T47D. Conditions: low MCT1 level. Here is the method: (§1) Cell lines (5,000-20,000) were seeded in 96-well plates and treated with indicated amounts of 3-BrPA. After 3 days of treatment, CellTiter-Glo (Promega) and/or CyQuant (Invitrogen) were used to measure survival percentage for each concentration compared to untreated cells. FACS analysis with Annexin V and 7AAD staining was performed according to manufacturer's manual (BD Pharmingen).
(§2) 15 cell lines (BT-474, BT-549, CAK1-1, CAL-51, HCC-70, HS578T, JURKAT, MDA-MB-157, MDA-MB-231, MDA-MB-453, MDA-MB-468, PC-3, SK-BR-3, T47D, ZR-75-1) were treated with 3-BrPA (0-300 μM). After 3 days, cell viability was quantified via CellTiter-Glo assay and an IC50 from the resulting dose-response curve was interpolated using a nonlinear regression model. Transcriptome-wide normalized mRNA levels from gene expression profiling experiments performed on the Affymetrix Human Genome U133 Plus 2.0 chip were obtained from the CCLE for all 15 cell lines. The mRNA expression pattern across all 15 samples for each of the genes was then correlated with the IC50 values. Similar correlation analysis was performed using OCR/ECAR values for each cell line.

Test [1] concerns glyceraldehyde phosphate dehydrogenase (GAPDH). The test is described as follows: LC-MS metabolite profiling, wild type relative to MCT1-null KBM7 cells. Here is the method: (§3) The bioenergetic profiles of KBM7 and MDA-MB-231 cells in response to 3-BrPA were determined using a Seahorse Bioscience XF24 Extracellular Flux Analyzer (Seahorse Bioscience). For the indicated experiments, 250,000 KBM7 or 40,000 MDA-MB-231 cells seeded in Seahorse tissue culture plates using unbuffered RPMI (10 mM Glucose). KBM7 cells were attached to the plates using CellTak (Clontech) one hour prior to the start of the experiment. For AUC (area under the curve) OCR and ECAR measurements, three consecutive readings were performed for each cell line. For experiments where 3-BrPA is used, after 3 consecutive readings, 50 μM 3-BrPA was injected through port A and ECAR and OCAR levels were measured. Lactate production was measured as described previously^50. For ATP assays, 20,000 cells were seeded and treated for 30 min with indicated amounts of 3-BrPA and ATP levels were determined using a luciferase-based assay (Promega). For metabolite measurements, 10 million wild type and MCT1 null KBM7 cells were cultured for 1 hour in presence of 50 μM 3-BrPA before metabolite extraction. Then, cells were rapidly washed three times with cold PBS, and then metabolites were extracted by addition of 80% ice-cold methanol followed after incubation on dry ice for 15 min. Endogenous metabolite profiles were obtained using LC-MS as described^51. Metabolite levels (n=3) were normalized to cell number.

The subject of a further test is parental KBM7 cells. The test is described as follows: Extracellular flux analysis (ECAR), parental KBM7 cells. To be noted: 50 μM 3-BrPA. As for the experimental part:
as §3

The test system of a further test is KBM7 cells. The test can be described thus: Cell survival assay, wild type (parental) KBM7 cells. To be noted: 50 μM, 3 days of treatment. As for the experimental part:
A haploid cell genetic screen with 3-BrPA was performed using 100 million mutagenized KBM7 cells as described previously^29. Mutagenized haploid KBM-7 cells were exposed to 50 μM 3-BrPA for 3 weeks. Surviving clones were harvested and genomic DNA was isolated and insertions were amplified. The sequences flanking retroviral insertion sites were mapped to the human genome using inverse PCR followed by Ilium in a sequencing. Genomic regions with a high density of insertions were identified using the proximity index for a given insertion. Additionally, the statistical enrichment of insertions at a given locus in the selected population was calculated by comparing the number of inactivating insertions to those in the untreated control dataset via a Fisher's Exact Test. Individual clones were isolated among 50 different clones and genomic DNA for individually selected clones were isolated using a genomic DNA isolation kit (Qiagen). Genomic insertions were identified by inverse PCR and subsequent sequencing as described previously^24.
Cell lines (5,000-20,000) were seeded in 96-well plates and treated with indicated amounts of 3-BrPA. After 3 days of treatment, CellTiter-Glo (Promega) and/or CyQuant (Invitrogen) were used to measure survival percentage for each concentration compared to untreated cells. […]

The next test concerns MDA-MB-468 cells. The test is described as follows: Cell survival assay, MDA-MB-468. As for the experimental part: as §1, §2
The next test has as its system BT-549 cells. The test can be described thus: Cell survival assay, BT-549. Here is the method:
as §1, §2

In another test the test system is breast cancer lines. The test is described as follows: 3-BrPA sensitivity versus MCT1 protein level in breast cancer lines. As for the experimental part: as §1
Briefly, cells were rinsed twice in ice-cold PBS and harvested in a standard lysis buffer containing 50 mM Hepes, pH 7.4, 40 mM NaCl, 2 mM EDTA, 1.5 mM orthovanadate, 50 mM NaF, 10 mM pyrophosphate, 10 mM glycerophosphate, protease inhibitors (Roche) and 1% Triton-X-100. Proteins from total lysates were resolved by 8-12% SDS-PAGE, and analyzed by immunoblotting as described using anti-MCT1 (Millipore; Ab3540), anti-RPS6 and anti-raptor antibodies (1:1000)^50. For quantitation, ImageJ software was used and the signals were normalized using an equal loading control (RPS6/Raptor). Immunohistochemistry was performed on formalin-fixed paraffin embedded sections using a boiling Dako antigen retrieval method (Dako). A 1:500 dilution of the anti-MCT1 antibody was used for staining.

Where [2] appears, read: wild type relative to MCT1-null KBM7, 50 μM, 1 hour, LC-MS.

“Also recorded” adds a separate entry of the source.

For `O=C(O)C(=O)CBr` [3-BrPA, 3-bromopyruvic acid], the “sensitivity to 3-BrPA” value in the test on T47D cells is listed as “resistant”; in the test with MDA-MB-468 cells (MDA-MB-468, increased MCT1 level), “sensitive”; in the test on BT-549 cells (BT-549, increased MCT1 level), “sensitive”; in the test with breast cancer lines (breast cancer lines with high MCT1 protein levels), “sensitive”; with breast cancer lines (breast cancer lines with low to no MCT1), “resistant to even high concentrations”. For the same compound, the “intermediates of the pentose phosphate pathway” value in test [1] (wild type KBM7, 50 μM, 1 hour, LC-MS) is on record as “accumulated intermediates of the pentose phosphate pathway”. In test [1] (setting [2]), the “glycolytic intermediates after glyceraldehyde 3-phosphate” value was “depletion of those that come after”. The “glycolytic intermediates preceding glyceraldehyde 3-phosphate” value in test [1] (setting [2]) is listed as “accumulation of the glycolytic intermediates that precede glyceraldehyde 3-phosphate”. Further, the “cause of anti-glycolytic effects from metabolite profiling” value in test [1] (wild type vs MCT1-null KBM7 metabolite profiling) was “strongly implicates GAPDH inhibition”. In addition, in the test on parental KBM7 cells, the “extracellular acidification rate (ECAR), a proxy for lactate production” value is recorded as “substantial decrease”. In addition, the “sensitivity to 3-BrPA (cell death)” value in the test with KBM7 cells is “induce cell death accompanied by caspase-3 activation; also recorded: sensitive”. For the same compound, the “sensitivity to 3-BrPA with suppression of GAPDH expression by RNAi” value with MDA-MB-468 cells (MDA-MB-468 expressing shRNA targeted to GAPDH vs GFP control) and in the test with BT-549 cells (BT-549 expressing shRNA targeted to GAPDH vs GFP control) was “markedly increased the sensitivity” throughout. The “sensitivity to 3-BrPA with partial suppression of MCT1 by RNAi” value with BT-549 cells (BT-549 expressing shRNAs targeting MCT1) is on record as “sufficient to confer resistance”.
